{"source": "patent US20030073662A1", "about": "“Regulation of cellular functions by ectopic expression of non-endogenous cell signalling receptors” (priority 1995, published 2003)", "key": {"[1]": {"system": "mouse TRH-R / phosphoinositide pathway in primary hepatocytes", "assay": "Stimulation of inositol phosphate formation in hepatocytes from rats after in vivo transfer of the TRH-R cDNA", "assay_type": "cell-based, rat", "procedure": "(§1) Primary hepatocytes were exposed to the vectors AdCMV.βgal or AdCMV.mTRH-R. After 24 hr, the cells were labeled for 24 hr with myo-[^3H]inositol (myo-[2-^3H]inositol; 20 Ci/mmol, Amersham Corporation, Arlington Heights, Ill.), incubated (5 min, 37° C.) with 10 mM LiCl, stimulated (60 min, 37° C.) with methyl-TRH. The cells were then lysed, the inositol phosphates were separated by anion-exchange chromatography and the radioactivity counted. The fold stimulation of inositol phosphates formation was calculated as: (dpm in inositol phosphates ×100/dpm in lipids of stimulated cells) (dpm in inositol phosphates ×100/dpm in lipids of unstimulated cells) (35). For each dose of vector, triplicate measurements were made in hepatocytes from two different animals.\n(§2) Sprague-Dawley rats (250-300 g, 3 months old, fed ad libitum) were anaesthetized with ketamine-HCl (60 mg/kg) and xylazine (5 mg/kg). The Ad vectors [AdCMV.mTRH-R, AdCMV.βgal, AdCMV.Null (the “Null” vector is similar to the other vectors except that the expression cassette contains the CMV promoter but no recombinant gene) (31)] were administered via the right external jugular vein (5×10^9 pfu, 100 μl 0.9% NaCl). The livers were recovered 5 days later.\nMeasurement of inositol phosphates formation was identical to that described for FIG. 3. Triplicate measurements were made from three individual animals per condition."}, "[2]": {"system": "mouse TRH-R / phosphoinositide pathway in primary hepatocytes", "assay": "Stimulation of inositol phosphate formation in hepatocytes after in vitro transfer of the TRH-R cDNA", "assay_type": "cell-based, rat", "excerpt": "The replication-deficient recombinant adenovirus vectors are all E1a^−, partial E1b^−, partial E3^− based on adenovirus type 5, in which an expression cassette containing a promoter, driving the expression of a recombinant gene, is inserted at the site of the El deletion. AdCMV.mTRH-R contains an expression cassette with the cytomegalovirus early intermediate promoter/enhancer (CMV) followed by the mouse thyrotropin releasing hormone receptor (TRH-R) cDNA (30). AdCMV.βgal carries the CMV promoter and the E.coli LacZ gene [encoding β-galactosidase (βgal)] (31). The adenovirus vectors were prepared, purified, and titered as previously described (32,33). […]\nas §1, with “For each dose of vector, triplicate measurements were made in hepatocytes from two different animals.” left out"}, "[3]": {"target": "T1, mouse thyrotropin releasing hormone receptor (TRH-R) (Mus musculus, UniProt P21761)", "T1 construct": "containing the protein-coding region of the mouse TRH-R cDNA, nucleotides 233-1462 of plasmid pBSmTRHR; expressed in transfected cells; host or cells: Primary Sprague-Dawley rat hepatocytes transduced with adenovirus AdCMV.mTRH-R, either in vitro (moi 1-100) or in vivo (i.v., hepatocytes isolated 5 days later)", "T1 sequence (P21761 whole entry)": "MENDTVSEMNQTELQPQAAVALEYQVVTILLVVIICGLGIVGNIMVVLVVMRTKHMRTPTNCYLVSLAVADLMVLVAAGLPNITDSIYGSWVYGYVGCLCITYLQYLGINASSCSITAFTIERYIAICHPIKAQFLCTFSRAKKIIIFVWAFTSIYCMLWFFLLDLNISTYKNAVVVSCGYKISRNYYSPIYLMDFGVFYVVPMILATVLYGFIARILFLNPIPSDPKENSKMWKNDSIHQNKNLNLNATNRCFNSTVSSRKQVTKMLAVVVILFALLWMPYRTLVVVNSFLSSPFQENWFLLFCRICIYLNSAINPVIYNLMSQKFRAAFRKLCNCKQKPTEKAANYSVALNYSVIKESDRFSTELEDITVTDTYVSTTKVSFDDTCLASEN", "assay_type": "binding", "procedure": "(§3) FIG. 2 illustrates the binding of methylthyrotropin releasing hormone (methyl-TRH) to hepatocytes following adenovirus-mediated in vitro transfer of the TRH-R cDNA. […] Following incubation for 24 hr with the vectors AdCMV.βgal or AdCMV.mTRH-R, the hepatocytes (10^6/well) were incubated for 60 min with [^3H]methyl-TRH (82.5 Ci/mmol, New England Nuclear-Dupont, Boston, Mass.) or [^3H]methyl-TRH plus excess unlabeled methyl-TRH (Sigma, St. Louis, Mo.). Free ligand was removed by aspirating the medium and washing the cells 5 times with 2 ml (4° C.) Hanks balanced salt solution. Cell associated radioactivity was measured by dissolving the cells with 1 ml of 0.4 N NaOH and counting. Specific binding of the [^3H]methyl-TRH was calculated as: [(dpm of [^3H]methyl-TRH)-(dpM [^3 H]methyl-TRH in the presence of unlabeled methyl-TRH)] (34). For each dose of the vector, triplicate measurements were made in hepatocytes from two different animals. The number of TRH-R receptor sites was calculated assuming a one-to-one stoichiometry of ligand to receptor and a homogeneous distribution of TRH-Rs."}, "Sprague-Dawley rats": {"system": "Sprague-Dawley rats", "assay": "Modulation of serum glucose in rats after in vivo transfer of the TRH-R cDNA to the liver", "design": "species or system rat", "procedure": "as §2\nThe vectors AdCMV.mTRH-R or AdCMV.Null (5×10^9 pfu), or saline (0.9%) as negative control (all in 100 μl) were administered to rats as described above. Five days later, the animals were anaesthetized by methoxyflurane (Pitman-Moore, Mundelein, Ill.) inhalation and the left and right external jugular veins were cannulated. After 15 min to permit stabilization, a 15 min baseline period was started, during which serum samples for glucose levels were obtained every 5 min. At “0 time” methyl-TRH (500 μg in 100 μl) or saline (0.9%, 100 μl ) was administered in one cannula and the serum samples obtained from the other cannula every 5 min for 55 min. Serum glucose levels were determined by colormetric assay (Sigma Diagnostics, St. Louis, Mo.).\nThe baseline glucose levels were determined for each animal as an average from −15 to 0 before administration of methyl-TRH or saline. The data are presented as the absolute change from the average baseline serum glucose level (mM) using each individual animal as its own control, and averaging the values at each time point for each group of animals. AdCMV.mTRH-R (IV)/TRH=vector administered intravenously at day 0, methyl-TRH administered at day 5, n=6 animals; AdCMV.mTRH-R(IP)/TRH=vector administered via the portal vein at day 0, methyl-TRH administered at day 5, n=5; AdCMV.Null(IV)/TRH=vector administered intravenously at day 0, methyl-TRH at day 5, n=6; saline/TRH=saline administered instead of vector at day 0, methyl-TRH at day 5, n=6; and naive/saline=nothing administered at day 0, saline at day 5, n=5. The data is presented as the mean for all animals in the group at each time point. The normal range for serum glucose Sprague-Dawley rats is 2.5 6.7 mM(36).\nFIG. 9 illustrates the average change in serum glucose levels from baseline. The average change in serum glucose levels from baseline was determined for each time point from 15 to 55 min after administration of methyl-TRH or saline on day 5. The data are presented as mean±standard deviation. All statistical comparisons were made using the two-tailed Student's t-test."}, "[4]": {"target": "T1, mouse thyrotropin releasing hormone receptor (TRH-R)", "assay": "[3H]methyl-TRH binding to primary hepatocytes from rats after in vivo adenovirus-mediated transfer of the TRH-R cDNA", "design": "species or system rat", "procedure": "as §3, §2\nFIGS. 4 and 5 are Northern analyses. Liver RNA (10 μg/lane) was evaluated with a mouse TRH-R cDNA probe (FIG. 4, lanes 1 and 2) or, as a positive control, […] cDNA (FIG. 5, lanes 3 and 4). The sizes of the transcripts are indicated. Lanes 1 and 3 (FIG. 4 and FIG. 5, respectively) are animals receiving AdCMV. βgal. […] The analysis of [^3H]methyl-TRH binding was identical to that described for FIG. 2. Triplicate measurements were made from three individual animals per condition."}, "[5]": {"settings": "hepatocytes uninfected or infected with control vector AdCMV.βgal"}, "[6]": {"settings": "hepatocytes from AdCMV.mTRH-R infected animals, not shown"}, "[7]": {"settings": "read-out: Kd of methyl-TRH binding"}}, "note": "Read-outs that look alike come from different tables or passages of the source. Positions of bridges follow the written chain, without caps; N, C: chain ends. No end group written: not given here.", "data": [{"compound": "NC(=O)[C@@H]1CCCN1C(=O)[C@H](Cc1cnc[nH]1)NC(=O)[C@@H]1CCC(=O)N1", "note": "[TRH, thyrotropin-releasing hormone]", "values": [{"measurement": "fold stimulation of inositol phosphate formation above controls of no added methyl-TRH", "setting": "[1]; hepatocytes from animals infected 5 days previously with AdCMV.mTRH-R", "result": "16.9±1.8", "unit": "fold"}, {"measurement": "stimulation of inositol phosphate formation", "setting": "[1]; hepatocytes from uninfected animals and animals infected in vivo with AdCMV.βgal", "result": "no stimulation of inositol phosphate formation"}]}, {"compound": "Cn1cnc(C[C@H](NC(=O)[C@@H]2CCC(=O)N2)C(=O)N2CCC[C@H]2C(N)=O)c1", "note": "[methyl-TRH, methylthyrotropin releasing hormone]", "values": [{"measurement": "inositol phosphates formation", "setting": "[2]; hepatocytes infected in vitro with AdCMV.mTRH-R, dependent on vector dose", "result": "increased amounts of inositol phosphates"}, {"measurement": "inositol phosphates formation", "setting": "[2]; [5]", "result": "no increase in inositol phosphates"}, {"measurement": "period of increase in formation of inositol phosphates after addition", "setting": "[1]; [6]", "result": "at least 1 hr"}, {"measurement": "internalization of ligand-receptor complex", "setting": "[3]; hepatocytes infected with AdCMV.mTRH-R, not shown", "result": "internalized"}, {"measurement": "specific binding of methyl-TRH", "setting": "[3]; [5]", "result": "no specific binding"}, {"measurement": "Kd", "setting": "[3]; [7]", "result": "3.18 ± 0.39", "unit": "nM"}, {"measurement": "increase in blood glucose over baseline from 15 to 55 min after administration", "setting": "Sprague-Dawley rats; methyl-TRH 500 μg IV, rats given AdCMV.mTRH-R intravenously 5 days previously", "result": "1.73 ± 0.26", "unit": "mM"}, {"measurement": "change in blood glucose over baseline", "setting": "Sprague-Dawley rats; methyl-TRH IV, control rats given saline (similar with AdCMV.Null) 5 days previously", "result": "small increase in blood glucose"}, {"measurement": "time of peak rise in blood glucose after administration", "setting": "Sprague-Dawley rats; methyl-TRH IV, rats given AdCMV.mTRH-R intravenously 5 days previously", "result": 15, "unit": "min"}, {"measurement": "time for which elevation in blood glucose was maintained", "setting": "Sprague-Dawley rats; methyl-TRH IV, rats given AdCMV.mTRH-R intravenously 5 days previously, experiment terminated at 55 min", "result": "at least 55 min"}, {"measurement": "rise in blood glucose compared with intravenous vector group", "setting": "Sprague-Dawley rats; methyl-TRH IV, rats given AdCMV.mTRH-R via the portal vein 5 days previously", "result": "superimposable"}, {"measurement": "internalization of methyl-TRH complex", "setting": "[4]; [6]", "result": "underwent internalization"}, {"measurement": "methyl-TRH specific binding", "setting": "[4]; hepatocytes from animals receiving AdCMV.mTRH-R in vivo", "result": "high levels of methyl-TRH specific binding"}, {"measurement": "methyl-TRH specific binding", "setting": "[4]; hepatocytes from naive animals or animals receiving control vector AdCMV.βgal", "result": "no specific methyl-TRH binding"}, {"measurement": "Kd", "setting": "[4]; [7]", "result": "2.51 ± 0.32", "unit": "nM"}]}, {"compound": "[Arg^8]vasopressin (CYFQNCPRG-NH2; disulfide 1-6; ends not checked; UniProt P01185 20-28, looked up) [positive control for rise in blood glucose]", "values": [{"measurement": "change in blood glucose", "setting": "Sprague-Dawley rats; positive control, intravenous route, 55 min evaluation, not shown", "result": "an increase in blood glucose, followed by a decrease"}]}]}
